Reference: PMC9124820, “In vitro evaluation of fenfluramine and norfenfluramine as victims of drug interactions” (Pharmacology Research & Perspectives, 2022)

Key:
[1] = Substrate loss and nFFA formation over time in human liver microsomes; type: in vitro ADME
Text: Microsomes from a mixed‐gender pool of 200 non‐transplantable human livers (Sekisui XenoTech, LLC, Kansas City, KS) were characterized as described.[20], [21] Human recombinant CYP450s (rCYP450s) and control membranes from Escherichia coli transfected with empty expression plasmid or plasmid expressing nicotinamide adenine dinucleotide phosphate (hydrogen) (NADPH)‐CYP450 oxidoreductase without CYP450 enzymes were obtained from Cypex, Ltd. Metabolite identification and stability studies used human liver S9 fractions (containing both microsomal and cytosolic fractions of the cell) from pooled human liver (n = 50) and intestine (n = 10), pooled canine liver (n = 8) and intestine (n = 7), and pooled rat liver (n = 454) and intestine (n = 199). All rCYP450 enzymes except rCYP1A2 and rCYP2D6 were expressed with cytochrome b5.
For FFA and nFFA reaction phenotyping experiments, LC‐MS/MS experiments were performed using an API 4000 QTRAP or QTRAP 5500 mass spectrometer (SCIEX) with positive electrospray ionization. Chromatography was performed using an Atlantis dC18 analytical column (100 × 2.1 mm, 5 µm; Waters Corporation). Mobile phases were 0.2% v/v formic acid in water and 0.2% v/v formic acid in methanol. FFA and nFFA were eluted at a flow rate of 0.5 mL/min with a linear gradient of 40%−95% methanol from 0.20−2.1 min. The mass transitions monitored were 232.0>109.0 for FFA, 204.0>159.0 for nFFA, 348.0>330.0 for 1’‐hydroxymidazolam‐d4 internal standard (FFA reaction phenotyping), and 262.0>244.0 for hydroxybupropion‐d6 internal standard (nFFA reaction phenotyping). Analyst Instrument Control and Data Processing software (v. 1.6.1) was used for collecting and integrating data (SCIEX). Calibration curves ranging from 1.25 µM−0.01 µM were used to quantify nFFA. Relative quantitation was used to approximate the amount of FFA test material used.
The line of best‐fit for calibration standards was calculated by weighted (1/x) linear regression based on peak‐area ratios of analyte to the internal standard using Analyst Instrument Control and Data Processing software (version 1.6.1; SCIEX). Mean analyte peak‐area ratio at each time point was normalized to controls at t = 0 min (100%).

[2] = clobazam, and valproate, healthy subjects, cited from earlier work
P‐gp = P‐gp (Homo sapiens, UniProt P08183); assay: Transporter substrate determination, efflux ratio across Caco-2 cells (P-gp)
Chain of P‐gp (P08183 whole entry): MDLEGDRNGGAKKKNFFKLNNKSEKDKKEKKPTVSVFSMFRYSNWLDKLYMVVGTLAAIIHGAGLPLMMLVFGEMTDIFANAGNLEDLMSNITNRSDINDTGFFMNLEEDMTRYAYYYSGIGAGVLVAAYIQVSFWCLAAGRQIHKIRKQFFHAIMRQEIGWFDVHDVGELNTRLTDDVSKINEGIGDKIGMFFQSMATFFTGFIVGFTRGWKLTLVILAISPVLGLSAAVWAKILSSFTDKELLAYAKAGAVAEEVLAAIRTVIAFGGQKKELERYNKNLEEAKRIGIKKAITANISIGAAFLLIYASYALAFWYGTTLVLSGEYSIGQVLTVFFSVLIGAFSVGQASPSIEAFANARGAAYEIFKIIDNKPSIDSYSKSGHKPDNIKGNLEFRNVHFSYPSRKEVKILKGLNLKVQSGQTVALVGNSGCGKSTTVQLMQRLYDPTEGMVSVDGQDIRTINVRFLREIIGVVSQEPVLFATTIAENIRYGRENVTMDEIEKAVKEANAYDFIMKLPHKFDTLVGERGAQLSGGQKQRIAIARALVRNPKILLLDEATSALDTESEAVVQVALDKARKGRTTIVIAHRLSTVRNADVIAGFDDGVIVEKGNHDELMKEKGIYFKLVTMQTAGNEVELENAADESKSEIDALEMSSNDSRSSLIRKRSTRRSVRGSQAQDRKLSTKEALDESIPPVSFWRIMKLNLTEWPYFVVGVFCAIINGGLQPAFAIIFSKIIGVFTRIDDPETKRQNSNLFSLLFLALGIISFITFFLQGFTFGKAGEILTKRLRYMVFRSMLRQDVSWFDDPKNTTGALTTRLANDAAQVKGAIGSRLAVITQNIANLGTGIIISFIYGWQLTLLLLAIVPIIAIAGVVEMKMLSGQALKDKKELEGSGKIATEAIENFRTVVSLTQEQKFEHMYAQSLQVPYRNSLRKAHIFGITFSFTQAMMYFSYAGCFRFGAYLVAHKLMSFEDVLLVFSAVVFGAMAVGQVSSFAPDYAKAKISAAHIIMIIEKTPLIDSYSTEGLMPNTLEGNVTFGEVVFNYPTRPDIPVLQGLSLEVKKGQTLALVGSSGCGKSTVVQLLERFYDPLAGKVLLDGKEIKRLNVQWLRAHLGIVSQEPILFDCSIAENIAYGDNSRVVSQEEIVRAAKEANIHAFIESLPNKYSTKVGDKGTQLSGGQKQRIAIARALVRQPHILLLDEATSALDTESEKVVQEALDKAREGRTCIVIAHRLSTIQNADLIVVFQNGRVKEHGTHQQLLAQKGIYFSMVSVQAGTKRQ

Row | Compound | FFA substrate loss ([1]; human liver microsomes 1 mg protein/mL, 1−100 µM FFA, all concentrations and times tested) | substrate remaining in the absence of NADPH ([1]; human liver microsomes, FFA, absence of NADPH) | effect on Cmax, AUC0‐t, and AUC0‐∞ of FFA ([2]; co‐administered with stiripentol) | substrate of the transporter (P‐gp) | nFFA substrate loss in the absence of microsomal protein ([1]; control without microsomal protein) | nFFA substrate loss in the absence of the NADPH‐generating system ([1]; human liver microsomes, no NADPH-generating system) | effect on Cmax and AUC0‐t of nFFA ([2]; FFA co‐administered with stiripentol)
1 | CCNC(C)Cc1cccc(C(F)(F)F)c1 (racemic) [FFA, (RS)‐ethyl (α‐methyl‐3‐trifluoromethylphenethyl)amine] | ≤ 7.7% | ~ 100% | increasing | not substrates |  |  | 
2 | CC(N)Cc1cccc(C(F)(F)F)c1.Cl (centres unmarked) [nFFA, 1‐(3‐(trifluoromethyl)phenyl)propan‐2‐amine hydrochloride] |  |  |  | not substrates | no substrate loss detected | 1.2% | reduced
